Test results: patent US20110288154A1, “RNA Interference Mediated Inhibition of Epithelial Sodium Channel (ENaC) Gene Expression Using Short Interfering Nucleic Acid (siNA)” (MERCK & CO., INC., priority 2008, published 2011)
[invAb] = inverted abasic unit; d = 2'-deoxy (DNA); m = 2'-O-methyl; r = 2'-OH (RNA); f = 2'-fluoro

System: mSCNN1A mRNA
Experiment: Screening of ENaCα siNAs in mouse NIH 3T3 cells (quantitative RT-PCR)
Type: cell-based
Set-up: Percent Reduction of the mSCNN1A mRNA relative to a non-targeting control siNA / Mouse % KD (efficacy of ENaCα mRNA knockdown): concentration or dose not given beside the values
Conditions: mouse NIH 3T3 cells, n = 3; for Mean (mSCNN1A expression normalized to the level of m36B4) / Percent Reduction of the mSCNN1A mRNA relative to a non-targeting control siNA / Avg 36B4 Expression: 24 hours post-transfection; for Avg ENaCα Expression (mSCNN1A): harvested 24 hours post-transfection; for Avg 36B4 Expression: housekeeping gene used for normalisation
Method: siNA constructs (Table 1b) may be tested for efficacy in reducing ENaC RNA expression in, for example, A549 human lung carcinoma cells. A549 (human; ATCC cat# CCL-185) cells were cultured at 37° C. in the presence of 5% CO2 and grown in Ham's F12K medium with 2 mM L-glutamine adjusted to contain 1.5 g/L sodium bicarbonate and supplemented with fetal bovine serum at a final concentration of 10% and 100 U/mL penicillin. The A549 cells were plated approximately 24 hours before transfection in 96-well plates at 7,500 cells/well, 100 μl/well. After 24 hours complexes containing siNA and Lipofectamine 2000 (Invitrogen) were created as follows: a solution of Lipofectamine 2000 in OPTI-MEM was prepared containing Lipofectamine 2000 at a final concentration of 14 μg/ml. In parallel, solutions of the siNAs were prepared in OPTI-MEM at a final concentration of 150 nM. After both solutions were incubated at 20° C. for 20 minutes an equal volume of the siNA solutions and the Lipofectamine 2000 solution were added together for each of the siNAs. The resultant solution has the siNAs at a final concentration of 75 nM and Lipofectamine 2000 at a final concentration of 7 μg/ml. This solution was incubated at 20° C. for 20 minutes. After incubation 50 μl of the solution were added to each of the wells (in triplicate). The final concentration of siNA in each well was 25 nM and the final concentration of Lipofectamine 2000 in each well was 2.33 μg/ml. The plates were incubated for 48 hours with no change of media before harvesting. Dose response curves were determined in a similar manner with each concentration being done in triplicate and maintaining a constant amount of Lipofectamine 2000 in each transfection.
A series of probes and primers were used to detect the various mRNA transcripts of the genes of ENaCa and GAPDH in mouse, rat, and human cell lines. The assays were performed on an ABI 7500 instrument, according to the manufacturer's instructions. Within each experiment, the baseline was set in the exponential phase of the amplification curve, and based on the intersection point of the baselines with the amplification curve, a Ct value was assigned by the instrument. This Ct value was then assigned a QTY value based on the Standard Curve. The standard curve in the various experiments herein used 1 ng to 300 ng of RNA extracted from the same cell line used for the experimental transfections.
All IC50 values were calculated from the data using GraphPad Prizm software, specifically a sigmoidal, variable slope curve for simple ligand binding. Also, unless otherwise indicated, all calculations of the efficacy and potency (e.g., % knockdown) of the siNAs were done relative to a non-targeting control siNA. If reported, P-values were computed using The Students t-test, including the Welch Correction for unequal variances.
In all of the calculations of the % knock-down of mRNA, the calculation was made relative to the normalized level of expression of the gene of interest in the samples treated with the non-targeting control (NTC) unless otherwise indicated. The gene of interest expression level was divided by the level of expression of GAPDH or 36B4 (depending on the species) in each sample. The three replicates for each condition in each experiment were averaged and the standard deviation of those samples was calculated. The following formula was then used to calculate the % of knock-down of the gene of interest:
The ENaCα siNAs were designed and synthesized as described previously. The siNAs were screened in three cell lines. Human A549 cells, mouse NIH 3T3 and Rat H-4-II-E cells. The data from the screen of ENaCa siNAs in all three species is shown in Tables 3a, 3b, 4a, 4b, 5a, and 5b and a summary of the data for certain siNA molecules is presented in Table 6. Each screen was performed at 24 hrs. The decision to use this time point was based upon the degree of knockdown of the mRNA seen at that time point.

Substance | Mean (mSCNN1A expression normalized to the level of m36B4) | Percent Reduction of the mSCNN1A mRNA relative to a non-targeting control siNA | Avg ENaCα Expression (mSCNN1A) | Avg 36B4 Expression
B AAccGCAuGAAGAcGGccu TTB / AGGccGucuucAuGcGGuuUU (chain 1 AACCGCAUGAAGACGGCCUTT; chain 2 AGGCCGUCUUCAUGCGGUUUU; siRNA; chain 1: sugars from the 5' end ddffdddfdddddfddfffdd, [invAb] at 5' end, 3' end, backbone not given here; chain 2: sugars from the 5' end rrrffmfffffmfmfmmffmm, backbone not given here) [Site 337] | 0.24 | 0.8% | 3.42 | 14.44
B AAccuGGGcAGccAGuGGA TTB / UCCAcuGGcuGcccAGGuuUU (sense AACCUGGGCAGCCAGUGGATT; antisense UCCACUGGCUGCCCAGGUUUU; siRNA; sense: sugars from the 5' end ddfffdddfddffddfddrdd, [invAb] at 5' end, 3' end, backbone not given here; antisense: sugars from the 5' end rrrmffmmffmfffmmmffmm, backbone not given here) [Site 1747] | 0.15 | −6.1% | 3.67 | 25.19
B AGccAGuGGAGccuGuGGu TTB / ACCAcAGGcuccAcuGGcuUU (sense AGCCAGUGGAGCCUGUGGUTT; antisense ACCACAGGCUCCACUGGCUUU; siRNA; sense: DNA at AGT, 2'-fluoro at CU, [invAb] at 5' end, 3' end, backbone not given here; antisense: sugars from the 5' end rrrmfmmmffffmffmmffmm, backbone not given here) [Site 1756] | 0.12 | 13.5% | 2.58 | 21.66
B AGuGuGGcuGuGccuAcAu TTB / AUGuAGGcAcAGccAcAcuUU (sense AGUGUGGCUGUGCCUACAUTT; antisense AUGUAGGCACAGCCACACUUU; siRNA; sense: DNA at AGT, 2'-fluoro at CU, [invAb] at 5' end, 3' end, backbone not given here; antisense: sugars from the 5' end rrrfmmmfmfmmffmfmffmm, backbone not given here) [Site 1382] | 0.21 | 10.7% | 2.94 | 13.77
B AccGcAuGAAGAcGGccuu TTB / AAGGccGucuucAuGcGGuUU (chain 1 ACCGCAUGAAGACGGCCUUTT; chain 2 AAGGCCGUCUUCAUGCGGUUU; siRNA; chain 1: DNA at AGT, 2'-fluoro at CU, [invAb] at 5' end, 3' end, backbone not given here; chain 2: sugars from the 5' end rrrmffmfffffmfmfmmfmm, backbone not given here) [Site 338] | 0.26 | −9.5% | 3.24 | 12.29
B AccuGGGcAGccAGuGGAG TTB / CUCcAcuGGcuGcccAGGuUU (sense ACCUGGGCAGCCAGUGGAGTT; antisense CUCCACUGGCUGCCCAGGUUU; siRNA; sense: DNA at AGT, 2'-fluoro at CU, [invAb] at 5' end, 3' end, backbone not given here; antisense: sugars from the 5' end rrrfmffmmffmfffmmmfmm, backbone not given here) [Site 1748] | 0.15 | −12.7% | 4.06 | 26.15
B GGGcAGccAGuGGAGccuG TTB / CAGGcuccAcuGGcuGcccUU (sense GGGCAGCCAGUGGAGCCUGTT; antisense CAGGCUCCACUGGCUGCCCUU; siRNA; sense: DNA at AGT, 2'-fluoro at CU, [invAb] at 5' end, 3' end, backbone not given here; antisense: sugars from the 5' end rrrmffffmffmmffmfffmm, backbone not given here) [Site 1752] | 0.11 | 19.8% | 3.21 | 29.27
B GGcAGccAGuGGAGccuGu TTB / ACAGGcuccAcuGGcuGccUU (sense GGCAGCCAGUGGAGCCUGUTT; antisense ACAGGCUCCACUGGCUGCCUU; siRNA; sense: DNA at AGT, 2'-fluoro at CU, [invAb] at 5' end, 3' end, backbone not given here; antisense: sugars from the 5' end rrrmmffffmffmmffmffmm, backbone not given here) [Site 1753] | 0.12 | 9.6% | 3.13 | 25.27
B GGcuGuGccuAcAucuucu TTB / AGAAGAuGucGGcAcAGccUU (sense GGCUGUGCCUACAUCUUCUTT; antisense AGAAGAUGUCGGCACAGCCUU; siRNA; sense: DNA at AGT, 2'-fluoro at CU, [invAb] at 5' end, 3' end, backbone not given here; antisense: sugars from the 5' end rrrmmmfmffmmfmfmmffmm, backbone not given here) [Site 1387] | 0.06 | 59.1% | 1.37 | 24.37
B GcAuGAAGAcGGccuucuG TTB / CAGAAGGccGuCuucAuGcUU (chain 1 GCAUGAAGACGGCCUUCUGTT; chain 2 CAGAAGGCCGUCUUCAUGCUU; siRNA; chain 1: DNA at AGT, 2'-fluoro at CU, [invAb] at 5' end, 3' end, backbone not given here; chain 2: sugars from the 5' end rrrmmmmffmfmfffmfmfmm, backbone not given here) [Site 341] | 0.23 | 3.9% | 3.17 | 13.56
B GccAGuGGAGccuGuGGuu TTB / AACcAcAGGcuccAcuGGcUU (sense GCCAGUGGAGCCUGUGGUUTT; antisense AACCACAGGCUCCACUGGCUU; siRNA; sense: DNA at AGT, 2'-fluoro at CU, [invAb] at 5' end, 3' end, backbone not given here; antisense: sugars from the 5' end rrrfmfmmmffffmffmmfmm, backbone not given here) [Site 1757] | 0.11 | 22.2% | 2.58 | 24.24
